Assay results taken from PubChem BioAssay (NCI).
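Test compounds were applied to cells in 96-well plates for 48 hours at 5 doses. TGI marks complete inhibition of growth.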

Assays:
Assay in all cases: NCI tumour cell line growth inhibition, 48 h
[1] = test system: SN12C renal
[2] = test system: COLO 205 colon
[3] = test system: EKVX NSCLC
[4] = test system: CAKI-1 renal
[5] = test system: HL-60(TB) leukemia
[6] = test system: HCC-2998 colon
[7] = test system: M14 melanoma
[8] = test system: NCI-H460 lung
[9] = test system: OVCAR-8 ovarian
[10] = test system: SF-268 CNS
[11] = test system: T-47D breast
[12] = test system: UO-31 renal
[13] = test system: HCT-15 colon
[14] = test system: ACHN renal
[15] = test system: BT-549 breast
[16] = test system: SR leukemia
[17] = test system: HT29 colon
[18] = test system: HS 578T breast
[19] = test system: MALME-3M melanoma
[20] = test system: RXF 393 renal

| SMILES | TGI [1] [µM] | TGI [2] [µM] | TGI [3] [µM] | TGI [4] [µM] | TGI [5] [µM] | TGI [6] [µM] | TGI [7] [µM] | TGI [8] [µM] | TGI [9] [µM] | TGI [10] [µM] | TGI [11] [µM] | TGI [12] [µM] | TGI [13] [µM] | TGI [14] [µM] | TGI [15] [µM] | TGI [16] [µM] | TGI [17] [µM] | TGI [18] [µM] | TGI [19] [µM] | TGI [20] [µM] |
| --- | --- | --- | --- | --- | --- | --- | --- | --- | --- | --- | --- | --- | --- | --- | --- | --- | --- | --- | --- | --- |
| COc1ccc2c(C)c(Oc3c(Cl)c(Cl)c(O)c(C#N)c3C#N)oc2c1 | > 100 | > 100 | > 100 | > 100 | > 100 | > 100 | > 100 | > 100 | > 100 | > 100 | > 100 | > 100 | > 100 | > 100 | > 100 | > 100 | > 100 | > 100 | > 100 | – |
| CC(=O)NCCCCN(CCCNC(C)=O)C(=O)CNS(=O)(=O)c1cccc2c(N(C)C)cccc12 | > 100 | > 100 | > 100 | – | > 100 | > 100 | > 100 | > 100 | – | > 100 | > 100 | > 100 | > 100 | > 100 | > 100 | > 100 | > 100 | > 100 | > 100 | > 100 |
| COc1cc2c(c(O)c1OC)C(=O)[C@@H]1CCC(=O)N1C2c1ccccc1 (some centres not stated) | > 100 | > 100 | > 100 | > 100 | > 100 | > 100 | > 100 | > 100 | > 100 | > 100 | > 100 | > 100 | > 100 | > 100 | > 100 | > 100 | > 100 | > 100 | > 100 | – |
| CC1C2CC(CC2(C)O)C1(C)C (configuration not stated) | > 100 | > 100 | > 100 | > 100 | > 100 | > 100 | > 100 | > 100 | > 100 | > 100 | > 100 | > 100 | – | > 100 | > 100 | > 100 | > 100 | > 100 | > 100 | > 100 |
| O=C(O)c1ccccc1CC1Cc2cc3c(cc2C1)CCC3 | > 100 | > 100 | > 100 | – | > 100 | > 100 | > 100 | > 100 | > 100 | > 100 | 85.6 | > 100 | > 100 | > 100 | > 100 | > 100 | > 100 | > 100 | > 100 | > 100 |
| O=C(NNC1=NCCCN1)c1ccco1 | > 100 | > 100 | > 100 | – | > 100 | > 100 | > 100 | > 100 | > 100 | > 100 | > 100 | > 100 | > 100 | > 100 | > 100 | > 100 | > 100 | > 100 | > 100 | > 100 |
| Cc1c2c(nc3ccccc13)C(=O)c1cccnc1C2=O | > 100 | 48.7 | 88 | – | 41.4 | > 100 | 48.8 | 13.1 | 77.9 | > 100 | 87.8 | > 100 | > 100 | > 100 | > 100 | 65.6 | 54.2 | > 100 | 3.56 | > 100 |
| O=C(O)C1(Cc2ccccc2)Cc2cc3c(cc2C1)CCC3 | > 100 | > 100 | > 100 | – | > 100 | > 100 | > 100 | > 100 | > 100 | > 100 | > 100 | > 100 | > 100 | > 100 | > 100 | > 100 | > 100 | > 100 | > 100 | > 100 |
| CCOC(=O)c1ccc(C(=O)n2ccnc2)[nH]1 | > 100 | > 100 | > 100 | > 100 | > 100 | > 100 | > 100 | > 100 | > 100 | > 100 | > 100 | > 100 | > 100 | > 100 | > 100 | > 100 | – | > 100 | > 100 | > 100 |
| O=S1(=O)c2ccccc2C(Nc2ccccc2)N1c1ccccc1 (configuration not stated) | > 100 | – | > 100 | > 100 | > 100 | > 100 | – | > 100 | > 100 | > 100 | 80 | > 100 | > 100 | > 100 | > 100 | > 100 | > 100 | > 100 | > 100 | > 100 |
| N#Cc1ccc(-c2nc3c(N)nc(-c4ccccc4)nc3o2)cc1 | > 100 | > 100 | > 100 | > 100 | > 100 | > 100 | > 100 | > 100 | > 100 | > 100 | > 100 | > 100 | > 100 | > 100 | > 100 | > 100 | > 100 | > 100 | – | > 100 |
